Results from ChEMBL document CHEMBL5352419, “Design, synthesis, and biological evaluation of tetrahydroquinoline amphiphiles as membrane-targeting antimicrobials against pathogenic bacteria and fungi” (Eur J Med Chem, 2022).
In brackets after ≈: the same amount, converted by molar mass. Activity calls are given as the source filed them. The rule behind the calls is not given here.

Legend:
Acinetobacter baumannii [1] = test: Antimicrobial activity against Acinetobacter baumannii ATCC17978 assessed as bacterial growth inhibition incubated for 24 hrs in presence of 100 ug/mL Ca2+ by Muller Hinton broth based dilution assay; format: functional
Staphylococcus aureus [2] = test: Antimicrobial activity against Staphylococcus aureus ATCC29213 assessed as bacterial growth inhibition incubated for 24 hrs in presence of 175.5 ug/mL K+ by Muller Hinton broth based dilution assay; format: functional
Acinetobacter baumannii [3] = test: Antimicrobial activity against Acinetobacter baumannii ATCC17978 assessed as bacterial growth inhibition incubated for 24 hrs in presence of 175.5 ug/mL K+ by Muller Hinton broth based dilution assay; format: functional
Candida albicans [4] = test: Antimicrobial activity against Candida albicans ATCC10231 assessed as fungal growth inhibition incubated for 48 hrs by Sabouraud Dextrose broth based dilution assay; format: functional
Acinetobacter baumannii [5] = test: Antimicrobial activity against Acinetobacter baumannii ATCC17978 assessed as bacterial growth inhibition incubated for 24 hrs in presence of 24.3 ug/mL Mg2+ by Muller Hinton broth based dilution assay; format: functional
Staphylococcus aureus [6] = test: Antibiofilm activity against Staphylococcus aureus ATCC29213 assessed as inhibition of biofilm formation at 3.125 ug/mL incubated for 24 hrs by crystal violet staining based analysis relative to control; format: functional
[7] = Cytotoxicity against mouse NCTC clone 929 cells assessed as viable cells at 3.125 ug/mL incubated for 24 hrs by CCK-8 assay relative to control; format: toxicity, cell-based; details: NCTC clone 929 (L929) cells, at 3.125 µg/mL, read-out: Activity
Klebsiella pneumoniae [8] = test: Antimicrobial activity against Klebsiella pneumoniae ATCC14581 assessed as bacterial growth inhibition incubated for 24 hrs by Muller Hinton broth based dilution assay; format: functional
Candida albicans [9] = test: Antimicrobial activity against Candida albicans CMCC98001 assessed as fungal growth inhibition incubated for 48 hrs in presence of 3220 ug/mL Na+ by Sabouraud Dextrose broth based dilution assay; format: functional
Escherichia coli [10] = test: Antibiofilm activity against Escherichia coli ATCC25922 assessed as inhibition of biofilm formation at 0.39 ug/mL incubated for 24 hrs by crystal violet staining based analysis relative to control; format: functional
Staphylococcus aureus [11] = test: Disruption of preformed biofilm in Staphylococcus aureus ATCC29213 assessed as residual preformed biofilm at 12.5 ug/mL incubated for 24 hrs by crystal violet staining based analysis relative to control; format: functional; details: dose 12.5 µg/ml
Escherichia coli [12] = test: Antimicrobial activity against Escherichia coli ATCC25922 assessed as bacterial growth inhibition incubated for 24 hrs in presence of 24.3 ug/mL Mg2+ by Muller Hinton broth based dilution assay; format: functional
Acinetobacter baumannii [13] = test: Antimicrobial activity against Acinetobacter baumannii ATCC17978 assessed as bacterial growth inhibition incubated for 24 hrs by Muller Hinton broth based dilution assay; format: functional
Escherichia coli [14] = test: Antimicrobial activity against Escherichia coli ATCC25922 assessed as bacterial growth inhibition incubated for 24 hrs by Muller Hinton broth based dilution assay; format: functional
Cell membrane [15] = test: Disruption of membrane integrity in Staphylococcus aureus ATCC29213 assessed as red fluorescence at 8 times of MIC incubated for 2 hrs under dark condition by SYTO 9 and PI staining based laser confocal microscopy analysis
Escherichia coli [16] = test: Antimicrobial activity against Escherichia coli ATCC25922 assessed as bacterial growth inhibition incubated for 24 hrs in presence of 175.5 ug/mL K+ by Muller Hinton broth based dilution assay; format: functional
Staphylococcus aureus [17] = test: Antimicrobial activity against Staphylococcus aureus ATCC29213 assessed as bacterial growth inhibition incubated for 24 hrs in presence of 24.3 ug/mL Mg2+ by Muller Hinton broth based dilution assay; format: functional
Staphylococcus aureus [18] = test: Antimicrobial activity against Staphylococcus aureus ATCC29213 assessed as log reduction in microbial load at 8 times of MIC measured at 0.5 hr by time-kill kinetics assay; format: functional
Candida albicans [19] = test: Antimicrobial activity against Candida albicans ATCC10231 assessed as fungal growth inhibition incubated for 48 hrs in presence of 24.3 ug/mL Mg2+ by Sabouraud Dextrose broth based dilution assay; format: functional
Cell membrane [20] = test: Disruption of membrane integrity in Candida albicans ATCC10231 assessed as increase in fluorescence intensity at 1 to 8 times of MIC measured for 1 hr by SYTOX green dye based fluorescence analysis
Klebsiella pneumoniae [21] = test: Antimicrobial activity against Klebsiella pneumoniae ATCC10031 assessed as bacterial growth inhibition incubated for 24 hrs by Muller Hinton broth based dilution assay; format: functional
Candida albicans [22] = test: Antimicrobial activity against Candida albicans ATCC10231 assessed as fungal killing at 1 to 8 times of MIC measured upto 24 hrs by time-kill kinetics assay; format: functional, organism-based
Staphylococcus aureus [23] = test: Antibiofilm activity against Staphylococcus aureus ATCC29213 assessed as inhibition of biofilm formation at 0.78 ug/mL incubated for 24 hrs by crystal violet staining based analysis relative to control; format: functional
Staphylococcus aureus [24] = test: In vivo antibacterial activity against Staphylococcus aureus ATCC29213 infected in cyclophosphamide immunosuppressed keratitis C57BL/6 mouse model assessed as log reduction in bacterial load at 0.5 % administered topically 4 times per day for 3 days; format: functional; details: time 3 day
Staphylococcus aureus [25] = test: Antimicrobial activity against Staphylococcus aureus ATCC29213 assessed as bacterial growth inhibition incubated for 24 hrs in presence of 3220 ug/mL Na+ by Muller Hinton broth based dilution assay; format: functional
Staphylococcus aureus [26] = test: Induction of drug resistance in Staphylococcus aureus ATCC29213 assessed as change in MIC at sub-inhibitory concentration incubated for 21 to 22 passages; format: functional
Candida albicans [27] = test: Antimicrobial activity against Candida albicans CMCC98001 assessed as fungal growth inhibition incubated for 48 hrs in presence of 175.5 ug/mL K+ by Sabouraud Dextrose broth based dilution assay; format: functional
Staphylococcus aureus [28] = test: Antibiofilm activity against Staphylococcus aureus ATCC29213 assessed as inhibition of biofilm formation at 0.39 ug/mL incubated for 24 hrs by crystal violet staining based analysis relative to control; format: functional
[29] = Cytotoxicity against mouse J774.A1 cells assessed as viable cells at 25 ug/mL incubated for 24 hrs by CCK-8 assay relative to control; format: toxicity, cell-based; details: at 25 µg/mL, read-out: Activity
[30] = Cytotoxicity against mouse corneal epithelial cells assessed as viable cells at 3.125 ug/mL incubated for 24 hrs by CCK-8 assay relative to control; format: toxicity, cell-based, Corneal epithelial cell; details: at 3.125 µg/mL, read-out: Activity
Escherichia coli [31] = test: Induction of drug resistance in Escherichia coli ATCC25922 assessed as change in MIC at sub-inhibitory concentration incubated for 21 to 22 passages; format: functional
Escherichia coli [32] = test: Antimicrobial activity against Escherichia coli ATCC25922 assessed as log reduction in microbial load at 4 times of MIC measured at 1 hr by time-kill kinetics assay; format: functional
[33] = Cytotoxicity against mouse corneal epithelial cells assessed as viable cells at 12.5 ug/mL incubated for 24 hrs by CCK-8 assay relative to control; format: toxicity, cell-based, Corneal epithelial cell; details: at 12.5 µg/mL, read-out: Activity
Staphylococcus aureus [34] = test: Antimicrobial activity against methicillin-resistant Staphylococcus aureus NCTC10442 assessed as bacterial growth inhibition incubated for 24 hrs in presence of 175.5 ug/mL K+ by Muller Hinton broth based dilution assay; format: functional
Staphylococcus aureus [35] = test: Antimicrobial activity against methicillin-resistant Staphylococcus aureus NCTC10442 assessed as bacterial growth inhibition incubated for 24 hrs in presence of 24.3 ug/mL Mg2+ by Muller Hinton broth based dilution assay; format: functional

Row | Compound | MIC (Acinetobacter baumannii [1]) [µg/mL] | MIC (Staphylococcus aureus [2]) [µg/mL] | MIC (Acinetobacter baumannii [3]) [µg/mL] | MIC (Candida albicans [4]) [µg/mL] | MIC (Acinetobacter baumannii [5]) [µg/mL] | inhibition at 3.125 µg/mL (Staphylococcus aureus [6]) [%] | viability at 24 h, 3.125 ug/mL [7] [%] | MIC (Klebsiella pneumoniae [8]) [µg/mL] | MIC (Candida albicans [9]) [µg/mL] | inhibition at 0.39 µg/mL (Escherichia coli [10]) [%] | Activity (Staphylococcus aureus [11]) [%] | MIC (Escherichia coli [12]) [µg/mL] | MIC (Acinetobacter baumannii [13]) [µg/mL] | MIC (Escherichia coli [14]) [µg/mL] | Activity (Cell membrane [15]) | MIC (Escherichia coli [16]) [µg/mL] | MIC (Staphylococcus aureus [17]) [µg/mL] | log(activity) (Staphylococcus aureus [18]) | MIC (Candida albicans [19]) [µg/mL] | Activity (Cell membrane [20]) | other results
1 | CCCCCCCCCN1CCCc2cc(OCCCCNC(=N)N)ccc21 | 3.12 | 0.78 | 3.12 | 1.56 (≈ 4.01 µM) | 3.12 | 102 | 95.5 | 1.56 (≈ 4.01 µM) | 0.78 | 21.6 | 0.3 | 1.56 | 1.56 (≈ 4.01 µM) | 1.56 (≈ 4.01 µM) | Active | 1.56 | 0.78 | >3 | 1.56 | Dose-Dependent Effect | MIC (Klebsiella pneumoniae [21]): 1.56 µg/mL (≈ 4.01 µM); Activity (Candida albicans [22]): Dose-Dependent Effect; inhibition at 0.78 µg/mL (Staphylococcus aureus [23]): 91%; log(activity) (Staphylococcus aureus [24]): 6.6; MIC (Staphylococcus aureus [25]): 0.78 µg/mL; Activity (Staphylococcus aureus [26]): inactive; MIC (Candida albicans [27]): 0.78 µg/mL; inhibition at 0.39 µg/mL (Staphylococcus aureus [28]): 65.2%; viability at 24 h, 25 ug/mL [29]: 72.6%; viability at 24 h, 3.125 ug/mL [30]: 95.3%; Activity (Escherichia coli [31]): inactive; log(activity) (Escherichia coli [32]): >3; viability at 24 h, 12.5 ug/mL [33]: 78%; MIC (Staphylococcus aureus [34]): 0.78 µg/mL; MIC (Staphylococcus aureus [35]): 0.78 µg/mL
2 | CC(C)=CCN1CCCc2cc(OCCCCCCCCNC(=N)N)ccc21 | 3.12 | 0.78 | 3.12 | 0.78 (≈ 2.02 µM) | 3.12 | 100 | 95.5 | 3.12 (≈ 8.08 µM) | 0.78 | 13.5 | 7.12 | 3.12 | 3.12 (≈ 8.08 µM) | 3.12 (≈ 8.08 µM) | Active | 3.12 | 0.78 | >3 | 1.56 | Dose-Dependent Effect | MIC (Klebsiella pneumoniae [21]): 3.12 µg/mL (≈ 8.08 µM); Activity (Candida albicans [22]): Dose-Dependent Effect; inhibition at 0.78 µg/mL (Staphylococcus aureus [23]): 93.6%; log(activity) (Staphylococcus aureus [24]): 6.3; MIC (Staphylococcus aureus [25]): 0.78 µg/mL; Activity (Staphylococcus aureus [26]): inactive; MIC (Candida albicans [27]): 0.78 µg/mL; inhibition at 0.39 µg/mL (Staphylococcus aureus [28]): 50.2%; viability at 24 h, 25 ug/mL [29]: 58.8%; viability at 24 h, 3.125 ug/mL [30]: 99.7%; Activity (Escherichia coli [31]): inactive; log(activity) (Escherichia coli [32]): >3; viability at 24 h, 12.5 ug/mL [33]: 87.6%; MIC (Staphylococcus aureus [34]): 0.78 µg/mL; MIC (Staphylococcus aureus [35]): 0.78 µg/mL
